Test results published in patent US20250230165A1, “HETEROCYCLIC COMPOUNDS FOR USE IN THE TREATMENT OF CANCER” (ARTIOS PHARMA LIMITED, priority 2021, published 2025).

Molecular target: T1, Human Polθ polymerase domain (aa1820-2590) (Homo sapiens, UniProt O75417)
T1 construct: Human Polθ polymerase domain (aa1820-2590) was expressed in E. coli; made in house; host or cells: E. coli
T1 sequence (O75417 1820-2590): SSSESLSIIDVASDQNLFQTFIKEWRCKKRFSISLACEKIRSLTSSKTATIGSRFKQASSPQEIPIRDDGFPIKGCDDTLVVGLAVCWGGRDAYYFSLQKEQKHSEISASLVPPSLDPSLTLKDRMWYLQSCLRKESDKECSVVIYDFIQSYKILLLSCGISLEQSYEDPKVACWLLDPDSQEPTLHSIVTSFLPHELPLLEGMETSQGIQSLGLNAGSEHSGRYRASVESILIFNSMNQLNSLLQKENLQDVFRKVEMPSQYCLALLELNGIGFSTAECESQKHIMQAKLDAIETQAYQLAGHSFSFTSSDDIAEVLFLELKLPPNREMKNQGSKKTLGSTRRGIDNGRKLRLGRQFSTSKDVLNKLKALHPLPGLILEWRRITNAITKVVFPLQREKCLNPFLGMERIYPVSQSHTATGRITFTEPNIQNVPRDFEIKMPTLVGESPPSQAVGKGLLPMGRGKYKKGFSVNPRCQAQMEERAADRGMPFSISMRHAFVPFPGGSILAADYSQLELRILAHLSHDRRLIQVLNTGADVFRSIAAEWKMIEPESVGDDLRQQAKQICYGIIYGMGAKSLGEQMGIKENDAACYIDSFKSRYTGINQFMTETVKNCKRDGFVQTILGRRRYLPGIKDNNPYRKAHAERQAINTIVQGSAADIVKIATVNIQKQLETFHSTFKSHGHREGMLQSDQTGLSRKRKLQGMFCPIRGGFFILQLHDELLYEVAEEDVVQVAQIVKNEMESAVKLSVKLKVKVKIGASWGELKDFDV
Experiment: Polθ Polymerase Domain Kinact/KI Assay (PicoGreen)
Assay type: biochemical
Settings: 0.8 nM Polθ, 100 nM DNA substrate, kobs vs [I] fit for 2-step covalent inhibitor
How it was run: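 Enzyme 0.8 nM, annealed DNA substrate 100 nM, […]; 25 mM Tris pH 7.5, 5% glycerol, 0.01% Triton X-100, 0.1 mg/ml BSA, 1 mM DTT, 1% DMSO. Quench with EDTA at timepoints to 60 min; PicoGreen read. kobs from time courses → Kinact/KI.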

Row | Kinact/Kl [µM⁻¹ s⁻¹] | Structure (SMILES)
1 | 1.60 | C=CC(=O)N1CC(c2nnc(CN3C[C@H]4CC(=O)N(c5cc(C(F)(F)F)cc(C)n5)[C@@H]4C(=O)N(C)c4cccc(F)c43)o2)C1 [Example 103, (3aR,11aS)-5-((5-(1-acryloylazetidin-3-yl)-1,3,4-oxadiazol-2-yl)methyl)-6-fluoro-10-methyl-1-(6-methyl-4-(trifluoromethyl)pyridin-2-yl)-1,3a,4,5,10,11a-hexahydro-2H-benzo[b]pyrrolo[2,3-f][1,4]diazocine-2,11(3H)-dione]
2 | 1.86 | C=CC(=O)N1CC2(CN(CCN3C[C@H]4CC(=O)N(c5cc(C(F)(F)F)cc(C)n5)[C@@H]4C(=O)N(C)c4cccc(F)c43)CC(=O)N2)C1 [Example 104, (3aR,11aS)-5-(2-(2-acryloyl-6-oxo-2,5,8-triazaspiro[3.5]nonan-8-yl)ethyl)-6-fluoro-10-methyl-1-(6-methyl-4-(trifluoromethyl)pyridin-2-yl)-1,3a,4,5,10,11a-hexahydro-2H-benzo[b]pyrrolo[2,3-f][1,4]diazocine-2,11(3H)-dione]
3 | 1.04 | C=CC(=O)N1CC2(CN(CCN3C[C@H]4CC(=O)N(c5cc(C(F)(F)F)cc(C)n5)[C@@H]4C(=O)N(C)c4cccc(F)c43)Cc3nccn32)C1 [Example 105, (3aR,11aS)-5-(2-(1-acryloyl-6′H-spiro[azetidine-3,5′-imidazo[1,2-a]pyrazin]-7′(8′H)-yl)ethyl)-6-fluoro-10-methyl-1-(6-methyl-4-(trifluoromethyl)pyridin-2-yl)-1,3a,4,5,10,11a-hexahydro-2H-benzo[b]pyrrolo[2,3-f][1,4]diazocine-2,11(3H)-dione]

The remaining lines, values behind:

Row | Structure (SMILES) | Kinact/Kl [µM⁻¹ s⁻¹]
4 | C=CC(=O)N1CC(c2nc(CN3C[C@H]4CC(=O)N(c5cc(C(F)(F)F)cc(C)n5)[C@@H]4C(=O)N(C)c4cccc(F)c43)n(C)n2)C1 [Example 99, (3aR,11aS)-5-((3-(1-acryloylazetidin-3-yl)-1-methyl-1H-1,2,4-triazol-5-yl)methyl)-6-fluoro-10-methyl-1-(6-methyl-4-(trifluoromethyl)pyridin-2-yl)-1,3a,4,5,10,11a-hexahydro-2H-benzo[b]pyrrolo[2,3-f][1,4]diazocine-2,11(3H)-dione] | 0.17
5 | C=CC(=O)N1CC(c2nc(CN3C[C@H]4CC(=O)N(c5cc(C(F)(F)F)cc(C)n5)[C@@H]4C(=O)N(C)c4cccc(F)c43)nn2C)C1 [Example 100, (3aR,11aS)-5-((5-(1-acryloylazetidin-3-yl)-1-methyl-1H-1,2,4-triazol-3-yl)methyl)-6-fluoro-10-methyl-1-(6-methyl-4-(trifluoromethyl)pyridin-2-yl)-1,3a,4,5,10,11a-hexahydro-2H-benzo[b]pyrrolo[2,3-f][1,4]diazocine-2,11(3H)-dione] | 0.10
6 | C=CC(=O)N1CC(c2nc(CN3C[C@H]4CC(=O)N(c5cc(C(F)(F)F)cc(C)n5)[C@@H]4C(=O)N(C)c4cccc(F)c43)no2)C1 [Example 101, (3aR,11aS)-5-((5-(1-acryloylazetidin-3-yl)-1,2,4-oxadiazol-3-yl)methyl)-6-fluoro-10-methyl-1-(6-methyl-4-(trifluoromethyl)pyridin-2-yl)-1,3a,4,5,10,11a-hexahydro-2H-benzo[b]pyrrolo[2,3-f][1,4]diazocine-2,11(3H)-dione] | 1.47
7 | C=CC(=O)N1CC(c2noc(CN3C[C@H]4CC(=O)N(c5cc(C(F)(F)F)cc(C)n5)[C@@H]4C(=O)N(C)c4cccc(F)c43)n2)C1 [Example 102, (3aR,11aS)-5-((3-(1-acryloylazetidin-3-yl)-1,2,4-oxadiazol-5-yl)methyl)-6-fluoro-10-methyl-1-(6-methyl-4-(trifluoromethyl)pyridin-2-yl)-1,3a,4,5,10,11a-hexahydro-2H-benzo[b]pyrrolo[2,3-f][1,4]diazocine-2,11(3H)-dione] | 1.16
